≈ marks a conversion by molar mass, not a printed value.
How the values were obtained:
human MAO-B = molecular target: T1, human MAO-B (Homo sapiens, UniProt P27338); test: In vitro MAO-B enzymatic activity (kynuramine substrate, fluorometry); assay type: biochemical; details: membranes from SF9 cells expressing human MAO-B; kynuramine 30 µM, 37° for 40 min
T1 construct: purchased Gentest, BD, USA; host or cells: SF9 cells (membranes)
T1 sequence (P27338 1-520): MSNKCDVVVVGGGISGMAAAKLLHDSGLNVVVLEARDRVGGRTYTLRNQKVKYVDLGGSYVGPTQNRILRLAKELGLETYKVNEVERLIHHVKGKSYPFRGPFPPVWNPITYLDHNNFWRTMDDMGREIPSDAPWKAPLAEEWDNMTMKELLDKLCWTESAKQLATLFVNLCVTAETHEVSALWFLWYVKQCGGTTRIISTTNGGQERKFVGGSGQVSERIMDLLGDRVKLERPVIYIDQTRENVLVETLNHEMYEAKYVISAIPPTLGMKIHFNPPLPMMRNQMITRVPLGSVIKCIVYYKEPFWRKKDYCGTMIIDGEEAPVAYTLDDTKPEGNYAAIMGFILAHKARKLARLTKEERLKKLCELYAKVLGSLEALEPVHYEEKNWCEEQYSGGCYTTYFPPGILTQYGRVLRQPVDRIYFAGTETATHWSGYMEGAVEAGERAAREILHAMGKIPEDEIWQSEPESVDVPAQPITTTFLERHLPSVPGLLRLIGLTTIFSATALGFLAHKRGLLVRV
Method: (§1) MAO-A and MAO-B enzymatic activities were measured using membranes obtained from SF9 cells expressing either human MAO-A or human MAO-B (Gentest, BD, USA). Assays were done in blank 96-well micro titter plates using kynuramine as substrate and measuring the formation of 4-hydroxyquinoline by fluorescence at 340 nm/465 nm. Briefly, membranes with MAO-A (0.006 mg/mL protein) and MAO-B (0.015 mg/mL protein) were incubated with kynuramine, 30 µM), at 37° for 40 min in the presence of the compound in a final volume of 200 µL. Reactions were stopped by adding NaOH 2N and the reaction product, 4-hydroxyquinoline, was determined by fluorometry using a Tecan Ultra reader.

human MAO-A = molecular target: T2, human MAO-A (Homo sapiens, UniProt P21397); test: In vitro MAO-A enzymatic activity (kynuramine substrate, fluorometry); assay type: biochemical; details: membranes from SF9 cells expressing human MAO-A; kynuramine 30 µM, 37° for 40 min
T2 construct: purchased Gentest, BD, USA; host or cells: SF9 cells (membranes)
T2 sequence (P21397 1-527): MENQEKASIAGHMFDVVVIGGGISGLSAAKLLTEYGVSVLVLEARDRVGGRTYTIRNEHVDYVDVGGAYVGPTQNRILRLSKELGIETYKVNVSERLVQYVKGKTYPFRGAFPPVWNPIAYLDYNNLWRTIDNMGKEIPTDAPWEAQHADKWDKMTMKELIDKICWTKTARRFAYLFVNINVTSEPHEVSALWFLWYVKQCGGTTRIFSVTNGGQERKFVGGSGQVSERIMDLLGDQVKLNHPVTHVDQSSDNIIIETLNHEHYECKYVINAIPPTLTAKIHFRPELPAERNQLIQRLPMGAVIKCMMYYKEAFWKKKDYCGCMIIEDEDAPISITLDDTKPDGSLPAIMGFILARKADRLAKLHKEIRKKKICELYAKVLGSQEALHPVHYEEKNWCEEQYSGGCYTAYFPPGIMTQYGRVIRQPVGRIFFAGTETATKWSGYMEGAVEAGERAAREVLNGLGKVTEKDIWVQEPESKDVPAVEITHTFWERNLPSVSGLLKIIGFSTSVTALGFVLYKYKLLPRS
Method: as §1

S. epidermidis = test: MIC by standard micro dilution method (NCCLS M7-A5); assay type: cell-based, Staphylococcus epidermidis; details: Mueller-Hinton medium (cation-adjusted), 16-24 h at 35°C; for MIC: Staphylococcus epidermidis, read-out: Geometric Mean MIC
S. pneumoniae = test: as above; assay type: cell-based, Streptococcus pneumoniae; details: 20-24h at 35°C; for MIC: Streptococcus pneumoniae, 5% CO2, read-out: Geometric Mean MIC
S. Aureus MR = test: as above; assay type: cell-based, Staphylococcus aureus; details: Mueller-Hinton medium (cation-adjusted), 16-24 h at 35°C; for MIC: Staphylococcus aureus, read-out: Geometric Mean MIC
[1] = system: Moxarella, Pasteurella and Bacteroides spp.; details: background art; cited from earlier work

Row | Compound | Ki (human MAO-B) [µM] | Ki (human MAO-A) [µM] | Geometric Mean MIC (S. epidermidis) [µg/mL] | Geometric Mean MIC (S. pneumoniae; 5% CO2) [µg/mL] | Geometric Mean MIC (S. Aureus MR) [µg/mL] | MIC (S. epidermidis) [µg/mL] | MICs [1] [µg/mL] | MIC (S. pneumoniae) [µg/mL] | MIC (S. Aureus MR) [µg/mL]
1 | N-[[(5S)-3-[3-fluoro-4-(2-acetoacetyl-2H-tetrazol-5-yl)-phenyl]-2-oxo-5-oxazolidinyl]methyl]acetamide [Example 6] | 10.1 | 37.1 | – | – | – | – | – | – | –
2 | N-[[(5S)-3-[3-fluoro-4-(1-hydroxyethyl-1H-tetrazol-5-yl)-phenyl]-2-oxo-5-oxazolidinyl]methyl]acetamide [Example 8] | – | – | 1 | 2 | 2 | – | – | – | –
3 | CC(=O)NC[C@H]1CN(c2ccc(N3CCOCC3)c(F)c2)C(=O)O1 [Linezolid, N-[[(5S)-3-[3-fluoro-4-(4-morpholinyl)phenyl]-2-oxo-5-oxazolidinyl]methyl]acetamide, reference compound] | – | – | – | – | – | 1 (≈ 2.96 µM) | 2 to 8 | 1 (≈ 2.96 µM) | 1 (≈ 2.96 µM)
4 | CC(=O)NC[C@H]1CN(c2ccc(-c3nnn(CCO)n3)c(F)c2)C(=O)O1 [Example 7, N-[[(5S)-3-[3-fluoro-4-(2-hydroxyethyl-2H-tetrazol-5-yl)-phenyl]-2-oxo-5-oxazolidinyl]methyl]acetamide] | 8.1 | 28.8 | – | – | – | – | – | – | –
5 | CC(=O)NC[C@H]1CN(c2ccc(-c3nnnn3C)c(F)c2)C(=O)O1 [Example 2, N-[[(5S)-3-[3-fluoro-4-(1-methyl-1H-tetrazol-5-yl)-phenyl]-2-oxo-5-oxazolidinyl]methyl]acetamide] | 14.2 | 74.2 | – | – | – | 2 (≈ 5.98 µM) | – | 2 (≈ 5.98 µM) | 2 (≈ 5.98 µM)
